{"source": "patent US9480695B2", "about": "“Methods for inducing orexin neurons and agent for treating narcolepsy or eating disorder” (THE UNIVERSITY OF TOKYO, priority 2011, dated 2016)", "tested_on": "endbrain-derived neurosphere (NSph)", "test": "Orexin inducing action on mouse fetus-derived neurosphere (NSph), RT-PCR", "type": "cell-based", "conditions": "1 mM from initiation of NSph culture, 6 days plus 10 days differentiation; FIG. 7", "procedure": "A culture and differentiation induction experiment was performed based on the method of Ciccolini and Svendsen (1998, J Neurosci. 18(19): 7869-80). An endbrain was removed from a C57BL/6N mouse fetus having an embryonic age of 14.5 days in ice-cold PBS/0.6% glucose. Dispersion into a single cell was performed by pipetting, and cells were suspended in a medium for NSph [DMEM/F12 (Wako) containing 1×B27 (Invitrogen), 20 ng/ml EGF (Sigma), 20 ng/ml FGF-basic (PEPROTECH), 5 μg/ml heparin (Sigma)] and seeded on a 10 cm petri dish in an amount of 2×10^6 cells/10 ml. Half the amount of the medium was exchanged 3 days after initiation of culturing, and culturing was performed for another 3 days (total 6 days).\nNSph was recovered 6 days after initiation of culturing, and cells were dispersed by pipetting in PBS/0.6% glucose. Cells were collected by centrifugation and suspended in a medium for differentiation induction (not containing EGF, FGF-basic and heparin of a medium for NSph). Cells were seeded in an amount of 4.5×10^5 cells/7.5 ml on a 6 cm dish which had been coated with poly-L-lysine/laminin (both Sigma) in advance, and differentiation was induced. Half the amount of the medium was exchanged 5 days after initiation of differentiation induction, and culturing was performed for another 5 days (total 10 days). […]", "data": [{"smiles": "CC(=O)N[C@@H]1C(O)O[C@H](CO)[C@@H](O)[C@@H]1O", "note": "(stereo partly drawn) [ManNAc, N-acetyl-D-mannosamine]", "values": [{"measurement": "Expression of Hcrt", "result": "detected only in a 1.0 mM ManNAc-added culture"}]}]}
